Structures can show the parent of a compound that is named as a salt.
Assays:
[1] = In vitro drug release by dialysis in PBS; type: physicochemical; settings: from BT/BH solution; within 4 h, PBS pH 7.4, 37 °C, sink condition
Protocol: The tube was then immersed in 5 mL of PBS, and the set was incubated at 37 °C with shaking (100 rpm). At predetermined intervals, 100 μL of the release medium (PBS) was withdrawn and replaced with equal volume of fresh medium. […] These experiments were carried out in triplicate.
Because the BM/BX SDNs are composed of hydrophobic drugs, the release was expected to slow down in comparison to their hydrophilic counterparts BT and BH.

[2] = Ex vivo cornea permeation (Franz diffusion cell); type: in vitro ADME; settings: from BT/BH solution, within 4 h, 37 °C, rabbit cornea
Protocol: After using dextran to confirm the intactness of cornea extracted from fresh rabbit eyes, that cornea was mounted between the donor chamber and receptor chamber of a Franz diffusion cell system. […] The set was incubated at 37 °C. At predetermined intervals up to 12 h, an aliquot of 100 μL was withdrawn from the receptor chamber and analyzed by LC-MS. An equal volume of fresh PBS was supplemented to the receptor chamber following each sampling. FITC-labeled Dextran was tested to confirm the intactness of the cornea, and the permeation of the FITC-labeled Dextran was quantified by measuring the fluorescence intensity of FITC (Emission: 525 nm, Excitation: 490 nm) using a microplate reader.

[3] = eye drops, salt form; background statement; cited from earlier work

BH released [1] [%] | SMILES | hydrophilic counterpart penetrated across the cornea [2] | bioavailability [3] | BT released [1]
> 70 | CC(C)NCC(O)COc1ccc(CCOCC2CC2)cc1 (stereo not drawn) [BH, betaxolol hydrochloride] | less than 10% | less than 5% | 
 | Brc1c(NC2=NCCN2)ccc2nccnc12.O=C(O)C(O)C(O)C(=O)O [BT, brimonidine tartrate] | less than 10% | less than 5% | more than 60%
